Measured values reported in patent publication US6737383B1, “Herbicidal oxadiazolidines” (priority 1999, dated 2004).

Experiments:
surinam grass = assay: Test B pre/postemergence surinam grass; format: in vivo, Brachiaria decumbens
In short: (§1)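 Herbicidal effect was estimated by eye on a ten-point control scale after plants spent twelve to sixteen days in a greenhouse following soil or foliar treatment. Foliar sprays targeted plants at one to four leaves; all doses were formulated in a non-phytotoxic solvent with surfactant.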

pigweed = assay: Test B pre/postemergence pigweed; format: in vivo, Amaranthus retroflexus
In short: as §1

cocklebur = assay: Test B pre/postemergence cocklebur; format: in vivo, Xanthium strumarium
In short: as §1

wheat = assay: Test B pre/postemergence wheat; format: in vivo, Triticum aestivum
In short: as §1

sugar beet = assay: Test B pre/postemergence sugar beet; format: in vivo, Beta vulgaris
In short: as §1

duck salad = assay: Test B flood test duck salad; format: in vivo, Heteranthera limosa
In short: (§2)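 Flood test on plants grown to the 2-leaf stage; treated plants kept in greenhouse twelve to sixteen days, then visually rated against controls on a 0 (no effect) to 10 (complete control) scale.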

giant foxtail = assay: Test B pre/postemergence giant foxtail; format: in vivo, Setaria faberii
In short: as §1

bamyardgrass = assay: Test B flood test barnyardgrass; format: in vivo, Echinochloa crus-galli
In short: as §2

crabgrass = assay: Test B pre/postemergence crabgrass; format: in vivo, Digitaria sanguinalis
In short: as §1

rape = assay: Test B pre/postemergence rape; format: in vivo, Brassica napus
In short: as §1

[1] = Postemergence, Rate 250 g/ha, scale of 0 to 10, 0 is no effect, 10 is complete control
[2] = Postemergence, Rate 500 g/ha, scale of 0 to 10 where 0 is no effect and 10 is complete control
[3] = Preemergence, Rate 62 g/ha, scale 0 to 10 (0 no effect, 10 complete control)
[4] = Preemergence, Rate 125 g/ha, scale of 0 to 10 where 0 is no effect and 10 is complete control
[5] = Preemergence, Rate 500 g/ha, scale of 0 to 10 where 0 is no effect and 10 is complete control
[6] = Postemergence, Rate 125 g/ha, scale of 0 to 10 where 0 is no effect and 10 is complete control
[7] = Postemergence, Rate 62 g/ha, scale of 0 to 10, 0 is no effect, 10 is complete control
[8] = Rate 62 g/ha, flood test species, Pre-emergence, visual evaluation after twelve to sixteen days
[9] = Rate 125 g/ha, under heading Pre-emergence, flood test species, visual evaluation after twelve to sixteen days
[10] = Rate 250 g/ha, Pre-emergence (flood test species), scale 0 to 10, 0 is no effect, 10 is complete control
[11] = Rate 500 g/ha, Pre-emergence section of Table B, 0 to 10 scale (0 no effect, 10 complete control)

SMILES: COC(C)n1c(=O)on(C(=O)N(c2ccc(Cl)cc2)C(C)C)c1=O (stereo not shown) [Compound 592]
- B. signalgrass plant response rating (surinam grass; [1]): 0
- Plant response rating, B. signalgrass (surinam grass; [2]): 0
- B. signalgrass plant response rating (surinam grass; [3]): 0
- B. signalgrass plant response rating (surinam grass; [4]): 0
- B. signalgrass plant response rating (0 to 10 scale, 0 is no effect, 10 is complete control) (surinam grass; Preemergence, Rate 250 g/ha): 0
- B. signalgrass plant response rating (surinam grass; [5]): 0
- Plant response rating, Redroot pigweed (pigweed; [6]): 0
- Redroot pigweed plant response rating (pigweed; [1]): 0
- Plant response rating, Redroot pigweed (pigweed; [2]): 0
- Redroot pigweed plant response rating (pigweed; [3]): 0
- Redroot pigweed plant response rating (pigweed; [4]): 0
- Plant response rating, Redroot pigweed (pigweed; [5]): 0
- Cocklebur plant response rating (cocklebur; [7]): 0
- Plant response rating, Cocklebur (cocklebur; [6]): 0
- Cocklebur plant response rating (cocklebur; [1]): 0
- Plant response rating, Cocklebur (cocklebur; [2]): 0
- Cocklebur plant response rating (cocklebur; [3]): 0
- Cocklebur plant response rating (cocklebur; [4]): 0
- Cocklebur plant response rating (0 to 10 scale) (cocklebur; Preemergence, Rate 250 g/ha): 0
- Plant response rating, Cocklebur (cocklebur; [5]): 0
- Plant response rating, Wheat (wheat; [6]): 0
- Wheat plant response rating (wheat; [1]): 0
- Plant response rating, Wheat (wheat; [2]): 0
- Wheat plant response rating (wheat; [3]): 0
- Wheat plant response rating (wheat; [4]): 0
- Plant response rating, Wheat (wheat; [5]): 0
- Plant response rating, Sugarbeets (sugar beet; [6]): 0
- Sugarbeets plant response rating (sugar beet; [1]): 0
- Plant response rating, Sugarbeets (sugar beet; [2]): 0
- Sugarbeets plant response rating (sugar beet; [3]): 0
- Sugarbeets plant response rating (sugar beet; [4]): 0
- Plant response rating, Sugarbeets (sugar beet; [5]): 0
- Plant response rating, Ducksalad (0 to 10 scale, 0 is no effect, 10 is complete control) (duck salad; [8]): 0
- Ducksalad plant response rating (0 to 10 scale, 0 is no effect, 10 is complete control) (duck salad; [9]): 0
- Ducksalad plant response rating (duck salad; [10]): 0
- Ducksalad plant response rating (duck salad; [11]): 0
- Giant foxtail plant response rating (giant foxtail; [7]): 0
- Plant response rating, Giant foxtail (giant foxtail; [6]): 0
- Giant foxtail plant response rating (giant foxtail; [1]): 0
- Plant response rating, Giant foxtail (giant foxtail; [2]): 0
- Giant foxtail plant response rating (giant foxtail; [3]): 0
- Giant foxtail plant response rating (giant foxtail; [4]): 0
- Plant response rating, Giant foxtail (giant foxtail; [5]): 0
- Plant response rating, Barnyardgrass (0 to 10 scale, 0 is no effect, 10 is complete control) (bamyardgrass; [8]): 0
- Barnyardgrass plant response rating (0 to 10 scale, 0 is no effect, 10 is complete control) (bamyardgrass; [9]): 0
- Barnyardgrass plant response rating (bamyardgrass; [10]): 0
- Barnyardgrass plant response rating (bamyardgrass; [11]): 0
- Crabgrass plant response rating (crabgrass; [7]): 0
- Plant response rating, Crabgrass (crabgrass; [6]): 0
- Crabgrass plant response rating (crabgrass; [1]): 0
- Plant response rating, Crabgrass (crabgrass; [2]): 2
- Crabgrass plant response rating (crabgrass; [3]): 0
- Crabgrass plant response rating (crabgrass; [4]): 0
- Plant response rating, Crabgrass (crabgrass; [5]): 2
- Rape plant response rating (rape; [7]): 0
- Plant response rating, Rape (rape; [6]): 0
- Rape plant response rating (rape; [1]): 0
- Plant response rating, Rape (rape; [2]): 0
- Rape plant response rating (rape; [3]): 0
- Rape plant response rating (rape; [4]): 0
- Plant response rating, Rape (rape; [5]): 0
